Data: US20250388565A1, “ESTROGEN RECEPTOR ALPHA DEGRADERS AND METHODS OF USE THEREOF” (Relay Therapeutics, Inc., priority 2022, published 2025)

target: T1, ERα protein (HiBiT-tagged) in ESR1_HiBiT KI MCF7 cells (Homo sapiens, UniProt P03372); test: Nano Glo HiBiT Lytic Degradation Assay; format: cell-based; details: 6 hours with compound, 14-point dose response 1:3, bell-shape curve fit, half-maximal effect of first Hill model, read-out: MCF7 ESR1 HiBiT - (DC50)
T1 sequence (P03372 1-595): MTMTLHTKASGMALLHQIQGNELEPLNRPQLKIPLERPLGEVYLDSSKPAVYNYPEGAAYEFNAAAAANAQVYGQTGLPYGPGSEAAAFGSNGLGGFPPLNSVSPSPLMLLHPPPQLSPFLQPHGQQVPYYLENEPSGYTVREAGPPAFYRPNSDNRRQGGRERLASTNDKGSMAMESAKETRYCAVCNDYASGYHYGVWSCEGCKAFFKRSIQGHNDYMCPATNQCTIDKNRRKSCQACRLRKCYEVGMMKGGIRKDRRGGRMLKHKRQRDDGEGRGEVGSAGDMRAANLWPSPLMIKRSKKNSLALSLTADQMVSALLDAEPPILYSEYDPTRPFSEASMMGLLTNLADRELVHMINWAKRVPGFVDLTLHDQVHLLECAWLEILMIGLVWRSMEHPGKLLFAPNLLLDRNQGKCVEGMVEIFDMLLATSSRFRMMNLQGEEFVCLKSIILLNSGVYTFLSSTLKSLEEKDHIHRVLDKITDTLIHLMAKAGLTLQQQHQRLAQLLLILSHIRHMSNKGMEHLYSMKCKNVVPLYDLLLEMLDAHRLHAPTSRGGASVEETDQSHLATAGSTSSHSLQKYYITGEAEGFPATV
Outline: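 ESR1_HiBiT knock-in MCF7 cells were seeded 24 h before treatment, then exposed to compounds for 6 h at 37° C (14-point 1:3 curves, 10 mM top stock, 0.1% DMSO final, duplicates). HiBiT-ERα was read by lytic LgBiT luminescence, background-subtracted and normalized to DMSO. DC50 was taken from the half-maximal point of the first Hill component of a bell-shaped fit.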

Structure (SMILES) | DC50
O=C1CC[C@H](N2Cc3cc(N4CCN(C[C@@H]5CCCN(c6ccc([C@@H]7c8ccc(O)cc8CC[C@@H]7c7ccccc7)cc6)C5)CC4)ccc3C2=O)C(=O)N1 (single isomer, unassigned) [II-20] | ≥ 10000 nM
O=C1CC[C@H](N2Cc3cc(N4CCN(C[C@@H]5CCCN(c6ccc([C@H]7c8ccc(O)cc8CC[C@H]7c7ccccc7)cc6)C5)CC4)ccc3C2=O)C(=O)N1 (single isomer, unassigned) [II-21] | 173 nM
O=C1CC[C@H](N2Cc3cc(N4CCN(C[C@H]5CCCN(c6ccc([C@@H]7c8ccc(O)cc8CC[C@@H]7c7ccccc7)cc6)C5)CC4)ccc3C2=O)C(=O)N1 (single isomer, unassigned) [II-22] | 5 nM
O=C1CC[C@H](N2Cc3cc(N4CCN(C[C@H]5CCCN(c6ccc([C@H]7c8ccc(O)cc8CC[C@H]7c7ccccc7)cc6)C5)CC4)ccc3C2=O)C(=O)N1 (single isomer, unassigned) [II-23] | ≥ 10000 nM
O=C1CC[C@H](N2Cc3cc(N4CCN(CC5CCN(c6ccc([C@@H]7c8ccc(O)cc8CC[C@@H]7c7ccccc7F)cc6)CC5)CC4)ccc3C2=O)C(=O)N1 (single isomer, unassigned) [II-24] | 245 nM
O=C1CC[C@H](N2Cc3cc(N4CCN(CC5CCN(c6ccc([C@H]7c8ccc(O)cc8CC[C@H]7c7ccccc7F)cc6)CC5)CC4)ccc3C2=O)C(=O)N1 (single isomer, unassigned) [II-25] | 1.17 nM
O=C1CC[C@H](N2Cc3cc(N4CCN(CC5CCN(c6ccc([C@@H]7c8ccc(O)cc8CC[C@@H]7c7cccc(F)c7)cc6)CC5)CC4)ccc3C2=O)C(=O)N1 (single isomer, unassigned) [II-26] | ≥ 10000 nM
O=C1CC[C@H](N2Cc3cc(N4CCN(CC5CCN(c6ccc([C@H]7c8ccc(O)cc8CC[C@H]7c7cccc(F)c7)cc6)CC5)CC4)ccc3C2=O)C(=O)N1 (single isomer, unassigned) [II-27] | 0.82 nM
Cc1cccc([C@H]2CCc3cc(O)ccc3[C@H]2c2ccc(N3CCC(CN4CCN(c5ccc6c(c5)CN([C@H]5CCC(=O)NC5=O)C6=O)CC4)CC3)cc2)c1 (single isomer, unassigned) [II-28] | 20 nM
Cc1cccc([C@@H]2CCc3cc(O)ccc3[C@@H]2c2ccc(N3CCC(CN4CCN(c5ccc6c(c5)CN([C@H]5CCC(=O)NC5=O)C6=O)CC4)CC3)cc2)c1 (single isomer, unassigned) [II-29] | 1.24 nM
O=C1CC[C@H](N2Cc3cc(N4CCN(C[C@@H]5CCN(c6ccc([C@@H]7c8ccc(O)cc8CC[C@@H]7c7ccccc7)cc6)C5)CC4)ccc3C2=O)C(=O)N1 (single isomer, unassigned) [II-32] | ≥ 10000 nM
O=C1CC[C@H](N2Cc3cc(N4CCN(C[C@@H]5CCN(c6ccc([C@H]7c8ccc(O)cc8CC[C@H]7c7ccccc7)cc6)C5)CC4)ccc3C2=O)C(=O)N1 (single isomer, unassigned) [II-33] | 2 nM
Cc1ccccc1[C@H]1CCc2cc(O)ccc2[C@H]1c1ccc(N2CCC(CN3CCN(c4ccc5c(c4)CN([C@H]4CCC(=O)NC4=O)C5=O)CC3)CC2)cc1 (single isomer, unassigned) [II-34] | 40 nM
Cc1ccccc1[C@@H]1CCc2cc(O)ccc2[C@@H]1c1ccc(N2CCC(CN3CCN(c4ccc5c(c4)CN([C@H]4CCC(=O)NC4=O)C5=O)CC3)CC2)cc1 (single isomer, unassigned) [II-35] | 0.34 nM
Cc1ccc([C@H]2CCc3cc(O)ccc3[C@H]2c2ccc(N3CCC(CN4CCN(c5ccc6c(c5)CN([C@H]5CCC(=O)NC5=O)C6=O)CC4)CC3)cc2)cc1 (single isomer, unassigned) [II-36] | 0.93 nM
Cc1ccc([C@@H]2CCc3cc(O)ccc3[C@@H]2c2ccc(N3CCC(CN4CCN(c5ccc6c(c5)CN([C@H]5CCC(=O)NC5=O)C6=O)CC4)CC3)cc2)cc1 (single isomer, unassigned) [II-37] | 46 nM
O=C1CCC(N2Cc3cc(N4CCN(CC5CCN(c6ccc([C@@H]7c8ccc(O)cc8CC[C@@H]7c7ccccc7)cc6)CC5)CC4)c(F)cc3C2=O)C(=O)N1 (single isomer, unassigned) [II-38] | 1 nM
O=C1CCC(N2Cc3cc(N4CC5(CN(CC6CCN(c7ccc([C@@H]8c9ccc(O)cc9CC[C@@H]8c8ccccc8)cc7)CC6)C5)C4)ccc3C2=O)C(=O)N1 (single isomer, unassigned) [II-39] | ≥ 10000 nM
O=C1CC[C@H](N2Cc3cc(N4CCN(CC5CCN(c6ccc([C@@H]7c8ccc(O)cc8CC[C@@H]7c7ccc(C(F)(F)F)cc7)cc6)CC5)CC4)ccc3C2=O)C(=O)N1 (single isomer, unassigned) [II-40] | ≥ 10000 nM

Structure (SMILES) | DC50
O=C1CC[C@H](N2Cc3cc(N4CCN(CC5CCN(c6ccc([C@H]7c8ccc(O)cc8CC[C@H]7c7ccc(C(F)(F)F)cc7)cc6)CC5)CC4)ccc3C2=O)C(=O)N1 (single isomer, unassigned) [II-41] | 2 nM
Cc1cc([C@@H]2c3ccc(O)cc3CC[C@@H]2c2ccccc2)ccc1N1CCC(CN2CCN(c3ccc4c(c3)CN([C@H]3CCC(=O)NC3=O)C4=O)CC2)CC1 (single isomer, unassigned) [II-42] | ≥ 10000 nM
Cc1cc([C@H]2c3ccc(O)cc3CC[C@H]2c2ccccc2)ccc1N1CCC(CN2CCN(c3ccc4c(c3)CN([C@H]3CCC(=O)NC3=O)C4=O)CC2)CC1 (single isomer, unassigned) [II-43] | 2 nM
CC(C1CCN(c2ccc([C@@H]3c4ccc(O)cc4CC[C@@H]3c3ccccc3)cc2)CC1)N1CCN(c2ccc3c(c2)CN([C@H]2CCC(=O)NC2=O)C3=O)CC1 (single isomer, unassigned) [II-44] | 2 nM
O=C1CC[C@H](N2Cc3cc(N4CCN(CC5CC6CCC(C5)N6c5ccc([C@@H]6c7ccc(O)cc7CC[C@@H]6c6ccccc6)cc5)CC4)ccc3C2=O)C(=O)N1 (single isomer, unassigned) [II-47] | 2 nM
C[C@@H]1C[C@H](CN2CCN(c3ccc4c(c3)CN(C3CCC(=O)NC3=O)C4=O)CC2)CCN1c1ccc([C@@H]2c3ccc(O)cc3CC[C@@H]2c2ccccc2)cc1 (single isomer, unassigned) [II-48] | 1 nM
C[C@H]1C[C@@H](CN2CCN(c3ccc4c(c3)CN(C3CCC(=O)NC3=O)C4=O)CC2)CCN1c1ccc([C@@H]2c3ccc(O)cc3CC[C@@H]2c2ccccc2)cc1 (single isomer, unassigned) [II-49] | 6 nM
O=C1CC[C@H](N2Cc3cc(N4CCN(CC5CC6CCC(C5)N6c5ccc([C@H]6c7ccc(O)cc7CC[C@H]6c6ccccc6)cc5)CC4)ccc3C2=O)C(=O)N1 (single isomer, unassigned) [II-56] | 0.006 nM
C[C@]1(N2Cc3cc(N4CCN(CC5CCN(c6ccc([C@@H]7c8ccc(O)cc8CC[C@@H]7c7ccccc7)cc6)CC5)CC4)ccc3C2=O)CCC(=O)NC1=O (single isomer, unassigned) [II-57] | ≥ 10000 nM
C[C@@]1(N2Cc3cc(N4CCN(CC5CCN(c6ccc([C@@H]7c8ccc(O)cc8CC[C@@H]7c7ccccc7)cc6)CC5)CC4)ccc3C2=O)CCC(=O)NC1=O (single isomer, unassigned) [II-58] | ≥ 10000 nM
O=C1CCC(N2Cc3cc(N4CCC(CN5CCC(c6ccc([C@H]7c8ccc(O)cc8CC[C@H]7c7ccccc7)cc6)CC5)CC4)ccc3C2=O)C(=O)N1 (single isomer, unassigned) [II-61] | 0.08 nM
CC(C1CCN(c2ccc([C@@H]3c4ccc(O)cc4CC[C@@H]3c3ccccc3)cc2)CC1)N1CCN(c2ccc3c(c2)CN([C@@H]2CCC(=O)NC2=O)C3=O)CC1 (single isomer, unassigned) [II-67] | 47 nM
C[C@H](C1CCN(c2ccc([C@@H]3c4ccc(O)cc4CC[C@@H]3c3ccccc3)cc2)CC1)N1CCN(c2ccc3c(c2)CN(C2CCC(=O)NC2=O)C3=O)CC1 (single isomer, unassigned) [II-69] | 0.51 nM
C[C@@H](C1CCN(c2ccc([C@@H]3c4ccc(O)cc4CC[C@@H]3c3ccccc3)cc2)CC1)N1CCN(c2ccc3c(c2)CN(C2CCC(=O)NC2=O)C3=O)CC1 (single isomer, unassigned) [II-70] | 5 nM
O=C1CCC(N2Cc3cc([C@@H]4CCN(CC5CCN(c6ccc([C@@H]7c8ccc(O)cc8CC[C@@H]7c7ccccc7)cc6)CC5)C[C@H]4F)ccc3C2=O)C(=O)N1 (single isomer, unassigned) [II-88] | 2 nM
O=C1CCC(N2Cc3cc([C@H]4CCN(CC5CCN(c6ccc([C@@H]7c8ccc(O)cc8CC[C@@H]7c7ccccc7)cc6)CC5)C[C@@H]4F)ccc3C2=O)C(=O)N1 (single isomer, unassigned) [II-89] | 1100 nM
O=C1CCC(N2Cc3cc([C@@H]4CCN(CC5CCN(c6ccc([C@@H]7c8ccc(O)cc8CC[C@@H]7c7ccccc7)cc6)CC5)CC4(F)F)ccc3C2=O)C(=O)N1 (single isomer, unassigned) [II-91] | 20 nM
O=C1CCC(N2Cc3cc([C@H]4CCN(CC5CCN(c6ccc([C@@H]7c8ccc(O)cc8CC[C@@H]7c7ccccc7)cc6)CC5)CC4(F)F)ccc3C2=O)C(=O)N1 (single isomer, unassigned) [II-92] | 6 nM
